Test results: US12486218B2, “Compounds advantageous in the treatment of central nervous system diseases and disorders” (AurimMed Pharma, Inc., priority 2008, dated 2025)

Experiments:
[1] = system: CYP2C19, CYP2D6, CYP2A6, CYP2C9; assay: In vitro human CYP-450 study, Ki values over the enzymes; assay type: in vitro ADME; conditions: range over the enzymes, not assigned to single isoforms
Description: On the other hand, it is an inhibitor for 2C19, 2D6, 2A6 and 2C9.

mice [2] = assay: Mouse formalin pain model; assay type: in vivo; conditions: 76 mg/kg i.p., at 0.5 hours
mice [3] = assay: Maximal Electroshock Seizure (MES) test, mice i.p.; assay type: in vivo; conditions: Mus musculus, ip
rats [4] = assay: Sciatic nerve ligation model in rats; assay type: in vivo; conditions: 62 mg/kg, at 0.5 hours
Method: [The response (threshold for foot withdrawal) was measured in grams.]

rats [5] = assay: Hippocampal Kindled Rats model; assay type: in vivo; conditions: Rattus norvegicus
mice [6] = assay: Minimal motor impairment (MID50), mice i.p.; conditions: mice, i.p.
Method: (§2) The animal testing was performed according to methods known in the relevant art.

in vivo = conditions: mouse, ip
Method: as §2

mice [7] = assay: Audiogenic Seizure susceptible (AGS) test, mice i.p.; assay type: in vivo; conditions: Mus musculus, ip
kainate (KA) receptors = assay: Electrophysiology, kainate receptor currents; assay type: cell-based; conditions: at 100 μM, holding potential −70 mV
Description: (§1) The mechanisms of action of many currently marketed anticonvulsant drugs are not fully understood. Although numerous molecular targets exist wherein anticonvulsants may exert an effect, the final common pathway appears to be through modulation of voltage-gated and/or neurotransmitter-gated ion channels. Thus, the common link among the various proposed mechanisms involves the ability of an anticonvulsant to modulate ion channel function. Presently, a number of prototype anticonvulsants are thought to exert their action (at least in part) by reducing sustained, high-frequency repetitive firing of action potentials by modulating voltage-dependent sodium (Na+) channels. The effect of promising candidate substances on voltage-gated Na+ channels can be assessed using state-of-the-art electrophysiological techniques.

NMDA receptors = assay: Electrophysiology, NMDA current; assay type: cell-based; conditions: at 100 μM [+glycine (1 μM)], holding potential −70 mV
Description: as §1

rats [8] = assay: Gender Neutral test (kindled rats); assay type: in vivo
rats [9] = assay: Lamotrigine-resistant amygdala-kindled rat model (LRM); assay type: in vivo
Description: Resistance to Lamotrigine can be induced in rats by treating them with the drug during the kindling acquisition phase (i.e., during kindling development in the epileptogenesis phase). Subsequently, the fully kindled Lamotrigine-refractory rats (i.e., now fully manifesting seizures) are also resistant (cross-tolerant) to carbamazepine, phenytoin, and topiramate, but not to valproate (or diazepam or the clinical Phase III drug candidate, retigabine).
The Lamotrigine-resistant amygdala-kindled rat model (LRM) may thus serve as an early model of drug-resistant (i.e., pharmacoresistant, refractory) epilepsy to identify novel AEDs for further evaluation in more extensive model systems, including the phenytoin-resistant kindled rat
The LRM thus serves to identify novel broad-spectrum AEDs which may be effective in the treatment of drug-resistant epilepsies. Up to 35% of epilepsy patients continue to suffer from uncontrolled seizures because of their drug-resistant epilepsies.

rats [10] = assay: Pilocarpine-induced Status Epilepticus in Rats (prevention; intervention @ 30 min)
Method: The animal testing was performed using the protocols developed in the Anticonvulsant Screening Program (ASP) at the National Institute of Neurological Disorders and Stroke (NINDS), National Institutes of Health (NIH).

[11] = system: type II SMA fibroblasts (GM03813); assay: SMN protein localization, gem counting in type II SMA fibroblasts; assay type: cell-based; conditions: 100 nM-10 μM, 5 days
Method: To validate the SMN2 promoter and exon 7 screens, the effects of compounds H, H (acid form), AY, F, BX, and BY were evaluated on the basis of expression and localization of SMN protein in type II SMA fibroblasts (GM03813). In a normal cell, SMN protein localized within the nucleus to discreet foci known as gems. In SMN-deficient SMA cells, the number of gems is greatly diminished. Although the function of gems is unknown, it is believed that they are somehow involved in the snRNP assembly function of SMN. Gem counting can, therefore, be considered an assay for SMN function.
GM03813 fibroblasts were treated with different doses (100 nM-10 μM) of compounds H, H (acid form), AY, F, BX, and BY for 5 days. SMN immunostaining was then completed on these cells and the number of gems was counted in 100 randomly-selected nuclei. […] In fact, the gem counts at the highest dose of compound H approach those observed for carrier fibroblasts (GM03814). When compared against treatment with 1 μM D157495—a D156844 derivative, all of the compounds tested performed as well as or, even better than D157495.

mice [12] = assay: Subcutaneous Metrazol Seizure threshold (s.c. MET) test, mice i.p.; assay type: in vivo; conditions: Mus musculus
[13] = system: identified target proteins; assay: Protein profiling using Mass spectrometry after compound BX treatment; conditions: protein amount, preliminary
Description: The data presented below in Tables 10-12 illustrate various studies aimed at identifying the targets that compound BX acts upon. Table 10 illustrates preliminary protein profiling data using Mass spectrometry to identify up/down-regulation by compound BX treatment among numerous identified target proteins. In the results shown in Table 10, superoxide dismutase (SOD) protein amount is increased almost two-fold. This is a significant increase in SOD. SOD protein, which is an enzyme that alternately catalyzes the dismutation (or partitioning) of the superoxide (O2^−) radical into either ordinary molecular oxygen (O2) or hydrogen peroxide (H2O2), is strongly associated with amyotrophic lateral sclerosis (ALS). Mutations in the first SOD enzyme (SOD1) can cause familial ALS. Onset of ALS is strongly associated with oxidative stress in the neural tissue of affected individuals.

[14] = system: dopaminergic neurons of striatum and Substantia Nigra pars compacta; assay: MPTP-treated mice, immunohistochemical analysis (tyrosine hydroxylase); assay type: in vivo; conditions: two weeks of oral treatment
Method: FIGS. 28A and 28B illustrate immunohistochemical analysis of the brains of mice treated with MPTP. As mentioned above, MPTP causes Parkinson's-like symptoms by destroying dopaminergic neurons in the substantia nigra of the brain. Loss of dopaminergic neurons leads to the loss of the neurotransmitter dopamine and the onset of Parkinson's symptoms. In these tests, tyrosine hydroxylase (TH) levels were measured in the Striatum (St) (FIG. 28A) and TH+ dopaminergic neurons in the Substantia Nigra pars compacta (SNpc) were counted (FIG. 28B) to assess the recovery effect of compound BX treatment from chronic MPTP-induced damage.

[15] = Rattus norvegicus, 0.5 h, read-out: Intervention @ 30 min, Protection
[16] = Rattus norvegicus, read-out: Prevention, Protection

Structure (SMILES): CC(CC(N)=O)c1ccc(OC(F)(F)F)cc1 (racemic) [Compound H, 3-[4-(trifluoromethoxy)-phenyl]butyramide]
- Ki [1]: 29 to 174 µM
- pain response, acute phase (mice [2]): 63 % of the control
- pain response, inflammatory phase (mice [2]): 63 % of the control
- ED50 (mice [3]; mice): 76.1 mg/kg
- ED50 (mice [3]; mice i.p., @ 0.5 hrs): 76.1 mg/kg
- allodynic threshold (rats [4]): 455 % of the control
- ED50 (rats [5]): 61 mg/kg
- MID50 (median minimal motor impairment dose) (mice [6]): 158.98 mg/kg
- TD50 (in vivo): 159 mg/kg
- ED50 (mice [7]; mice): 22.5 mg/kg
- ED50 (mice [7]; mice i.p., @ 0.5 hr): 22.5 mg/kg
- kainate (KA) receptor response (kainate (KA) receptors): 99±1 % of control
- NMDA current (enhancement) (NMDA receptors): 119±7 % of control
- efficacy in the two genders (rats [8]): equally efficacious in both genders
- activity in the LRM (rats [9]): active
- responders at 176 mg/kg (rats [10]; [15]): 97%
- responders at 200 mg/kg (rats [10]; [16]): 86%
- gem counts (SMN immunostaining, 100 nuclei) [11]: increase gem counts in a dose-dependent manner
- relative potency in increasing gem counts [11]: most potent
- ED50 (mice [12]; mice i.p., @ 0.5 hrs): 91.4 mg/kg
- ED50 (mice [12]; mice, i.p.): 91.4 mg/kg

Structure (SMILES): C[C@H](CC(N)=O)c1ccc(OC(F)(F)F)cc1 (single isomer, unassigned) [Compound BX, R-(−)-3-(4-Trifluoromethoxy-phenyl)butyramide]
- Compound Ratio, 14-3-3 Protein Gamma (P61983) [13]: 1.15
- Compound Ratio, Elongation factor 1-alpha 1 (P62630) [13]: 0.59
- Compound Ratio, Eukaryotic translation initiation factor 5A-1 (Q3T1J1) [13]: 1.64
- Compound Ratio, Glycine tRNA ligase (G3V7G8) [13]: 0.67
- Compound Ratio, Heat Shock Protein HSP 90-alpha (P82995) [13]: 0.77
- Compound Ratio, Heat shock 70 kDA protein (F1LRV4) [13]: 0.73
- Compound Ratio, Hypoxia up-regulated protein (Q63617) [13]: 0.58
- Compound Ratio, Malate Dehydrogenase (P04636) [13]: 0.68
- Compound Ratio, Proteasome subunit alpha type-2 (P17220) [13]: 0.35
- Compound Ratio, Superoxide dismutase [CU—Zn] (P07632) [13]: 1.72
- pain response, acute phase (mice [2]): 84 % of the control
- pain response, inflammatory phase (mice [2]): 41 % of the control
- ED50 (mice [3]; mice i.p., @ 1.0 hr): 47.9 mg/kg
- TH+ dopaminergic neurons in the Substantia Nigra pars compacta [14]: stimulated the regrowth of TH+ dopaminergic neurons
- tyrosine hydroxylase (TH) levels in the Striatum [14]: induce recovery from MPTP-induced damage in striatum
- TD50 at 0.25 hr (in vivo): 104 mg/kg
- ED50 (mice [7]; mice i.p., @ 0.5 hr): 16.5 mg/kg
- responders at 155 mg/kg (rats [10]; [15]): 50%
- responders at 100 mg/kg (rats [10]; [16]): 100%
- effect on convulsive SE (rats [10]; rats, 200 mg/kg, administered 30′ after the first stage 3 seizure): halted the convulsive SE
- gem counts (SMN immunostaining, 100 nuclei) [11]: increase gem counts in a dose-dependent manner
- ED50 (mice [12]; mice i.p., @ 1.0 hr): 51.4 mg/kg
